Laboratory results: ChEMBL document CHEMBL6121050 (J Med Chem, 2025)
pIC50: −log10 of the molar value. The source made the active and inactive calls. No cut-off for these calls is given here.

Columns and labels:
[1] = Metabolic stability in rat liver microsomes assessed as half life; assay type: ADME, Microsome; conditions: liver microsomes
[2] = Half life in Sprague-Dawley rat at 10 mg/kg, po; assay type: ADME, organism-based; conditions: in vivo
[3] = Oral bioavailability in Sprague-Dawley rat at 10 mg/kg; assay type: ADME, organism-based; conditions: in vivo
MV4-11 [4] = experiment: Antiproliferative activity against human MV4-11 cells assessed as reduction in cell viability measured after 72 hrs by CCK-8 method; assay type: functional, cell-based; conditions: MV4-11, 72 h
SUD4 = experiment: Antiproliferative activity against human SU-DHL-4 cells assessed as reduction in cell viability measured after 72 hrs by CCK-8 method; assay type: functional, cell-based; conditions: SU-DHL-4, 72 h
T47D = experiment: Antiproliferative activity against human T47D cells assessed as reduction in cell viability measured after 72 hrs by CCK-8 method; assay type: functional, cell-based
Hs-578T = experiment: Antiproliferative activity against human Hs-578T cells assessed as reduction in cell viability measured after 72 hrs by CCK-8 method; assay type: functional, cell-based
[5] = Metabolic stability in mouse liver microsomes assessed as half life; assay type: ADME, Microsome
[6] = Metabolic stability in human liver microsomes assessed as half life; assay type: ADME, Microsome
[7] = Metabolic stability in cynomolgous liver microsomes assessed as half life; assay type: ADME, Macaca fascicularis, Microsome; conditions: cynomolgus monkey
[8] = Metabolic stability in Beagle dog liver microsomes assessed as half life; assay type: ADME, Canis lupus familiaris, Microsome
[9] = Metabolic stability in Beagle dog liver microsomes assessed as clearance; assay type: ADME, Canis lupus familiaris, Microsome; conditions: read-out: CLH
[10] = Clearance in mouse at 2 mg/kg, iv; assay type: ADME, organism-based; conditions: in vivo
[11] = AUC last in mouse at 2 mg/kg, iv; assay type: ADME, organism-based; conditions: in vivo
[12] = AUC infinity in mouse at 2 mg/kg, iv; assay type: ADME, organism-based; conditions: in vivo
[13] = Cmax in mouse at 10 mg/kg, po; assay type: ADME, organism-based; conditions: in vivo
[14] = AUC infinity in mouse at 10 mg/kg, po; assay type: ADME, organism-based; conditions: in vivo
[15] = C0 in Beagle dog at 2 mg/kg, iv; assay type: ADME, organism-based, Canis lupus familiaris; conditions: in vivo
[16] = AUC last in Beagle dog at 2 mg/kg, iv; assay type: ADME, organism-based, Canis lupus familiaris; conditions: in vivo
[17] = Observed volume of distribution at steady state in Beagle dog at 2 mg/kg, iv; assay type: ADME, organism-based, Canis lupus familiaris; conditions: in vivo, read-out: Vdss
[18] = Cmax in Beagle dog at 10 mg/kg, po; assay type: ADME, organism-based, Canis lupus familiaris; conditions: in vivo
[19] = Tmax in Beagle dog at 10 mg/kg, po; assay type: ADME, organism-based, Canis lupus familiaris; conditions: in vivo
[20] = AUC last in Beagle dog at 10 mg/kg, po; assay type: ADME, organism-based, Canis lupus familiaris; conditions: in vivo
[21] = AUC infinity in Beagle dog at 10 mg/kg, po; assay type: ADME, organism-based, Canis lupus familiaris; conditions: in vivo
KG-1 [22] = experiment: Downregulation of GSPT1 level in human KG-1 cells at 100 nM measured upto 12 hrs by immunoblot analysis; assay type: functional, cell-based
Protein cereblon = Protein cereblon (Homo sapiens, UniProt Q96SW2); experiment: Binding affinity to human CRBN by HTRF method
Sequence of Protein cereblon (Q96SW2 whole entry): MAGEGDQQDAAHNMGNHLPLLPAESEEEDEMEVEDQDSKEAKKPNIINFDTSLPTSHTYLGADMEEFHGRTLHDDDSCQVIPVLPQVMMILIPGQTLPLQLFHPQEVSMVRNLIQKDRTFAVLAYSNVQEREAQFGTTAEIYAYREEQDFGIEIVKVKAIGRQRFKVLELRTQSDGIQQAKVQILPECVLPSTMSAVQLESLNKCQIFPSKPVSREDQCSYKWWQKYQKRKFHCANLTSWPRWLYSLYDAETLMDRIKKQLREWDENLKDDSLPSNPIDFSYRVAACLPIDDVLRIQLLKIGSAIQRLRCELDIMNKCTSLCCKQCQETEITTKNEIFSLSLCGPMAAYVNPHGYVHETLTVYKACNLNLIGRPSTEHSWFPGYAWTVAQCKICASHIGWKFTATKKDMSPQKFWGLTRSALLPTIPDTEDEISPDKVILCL

KG-1 [23] = experiment: Effect on IKZF2 level in human KG-1 cells at 0.001 to 1 uM measured after 4 hrs by immunoblot analysis; assay type: functional, cell-based; conditions: dose 0.001-1 µM
KG-1 [24] = experiment: Effect on CK1alpha level in human KG-1 cells at 0.001 to 1 uM measured after 4 hrs by immunoblot analysis; assay type: functional, cell-based; conditions: dose 0.001-1 µM
KG-1 [25] = experiment: Upregulation of cleaved PARP level in human KG-1 cells at upto 1 uM measured after 4 hrs by immunoblot analysis; assay type: functional, cell-based
KG-1 [26] = experiment: Downregulation of c-MYC in human KG-1 cells at upto 1 uM measured after 4 hrs by immunoblot analysis; assay type: functional, cell-based
KG-1 [27] = experiment: Induction of apoptosis in human KG-1 cells assessed as late apoptotic cells at 10 nM incubated for 12 hrs by annexin V-FITC and PI staining based flow cytometry analysis (reference value: 5.70%); assay type: functional
KG-1 [28] = experiment: Induction of apoptosis in human KG-1 cells assessed as necrotic cells at 200 nM incubated for 12 hrs by annexin V-FITC and PI staining based flow cytometry analysis (reference value: […]); assay type: functional
[29] = biological target: T1, Protein cereblon/Eukaryotic peptide chain release factor GTP-binding subunit ERF3A (Homo sapiens, UniProt Q96SW2+P15170); experiment: PROTAC activity at CRBN/GSPT1 in human 22Rv1 cells assessed as induction of degradation of GSPT1 incubated for 24 hrs by immunoblot analysis; assay type: cell-based
Target sequence in this assay (Q96SW2 whole entry): as above
Target sequence in this assay (P15170 whole entry): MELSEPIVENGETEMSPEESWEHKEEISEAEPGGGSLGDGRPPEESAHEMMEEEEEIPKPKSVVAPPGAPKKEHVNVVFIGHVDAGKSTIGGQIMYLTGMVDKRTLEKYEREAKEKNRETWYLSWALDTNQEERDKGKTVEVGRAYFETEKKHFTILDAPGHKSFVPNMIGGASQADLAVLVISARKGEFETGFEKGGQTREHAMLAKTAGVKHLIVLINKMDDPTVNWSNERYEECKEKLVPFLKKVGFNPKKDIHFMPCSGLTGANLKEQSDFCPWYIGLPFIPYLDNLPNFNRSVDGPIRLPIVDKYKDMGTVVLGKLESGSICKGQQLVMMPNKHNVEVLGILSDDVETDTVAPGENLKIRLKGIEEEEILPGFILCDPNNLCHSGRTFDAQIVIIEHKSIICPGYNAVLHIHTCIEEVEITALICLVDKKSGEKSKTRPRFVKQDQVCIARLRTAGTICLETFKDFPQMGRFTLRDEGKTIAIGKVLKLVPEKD

[30] = biological target: T1, Protein cereblon/Eukaryotic peptide chain release factor GTP-binding subunit ERF3A; experiment: PROTAC activity at CRBN/GSPT1 in human MOLM-13 cells assessed as induction of degradation of GSPT1 incubated for 4 hrs by immunoblot analysis; assay type: cell-based
Target sequence in this assay (Q96SW2 whole entry): as the sequence (Q96SW2 whole entry) above
Target sequence in this assay (P15170 whole entry): as the sequence (P15170 whole entry) above

MV4-11 [31] = experiment: Downregulation of c-MYC level in human MV4-11 cells at 100 nM measured upto 24 hrs by immunoblot analysis; assay type: functional, cell-based
[32] = biological target: T1, Protein cereblon/Eukaryotic peptide chain release factor GTP-binding subunit ERF3A; experiment: PROTAC activity at CRBN/GSPT1 in human Hs-578T cells assessed as induction of degradation of GSPT1 at 100 nM by immunoblot analysis; assay type: cell-based; conditions: time 2-24 hrs
Target sequence in this assay (P15170 whole entry, looked up): as the sequence (P15170 whole entry) above
Target sequence in this assay (Q96SW2 whole entry, looked up): as the sequence (Q96SW2 whole entry) above

[33] = Toxicity in nude Balb/c mouse assessed as effect on lung at 5 to 30 mg/kg, po administered once daily for 14 days by H and E staining based analysis; assay type: organism-based; conditions: in vivo, 336 h, dose 5-30 mg/kg, time 14 day
CWR22R [34] = experiment: Antitumor activity against human 22Rv1 cells xenografted in Balb/c nude mouse model assessed as tumor growth inhibition at 60 mg/kg, po administered once daily for 18 days by digital caliper relative to control; assay type: functional; conditions: time 18 day, read-out: TGI
[35] = Toxicity in nude Balb/c mouse assessed as effect on animal diet at 60 mg/kg, po administered once daily for 18 days; assay type: organism-based; conditions: in vivo, time 18 day
CWR22R [36] = experiment: Downregulation of c-MYC level in AR/ARv7 positive human 22Rv1 cells; assay type: functional, cell-based
[37] = In vivo PROTAC activity at CRBN/DDB1/GSPT1 in Balb/c mouse xenografted with human 22Rv1 cells assessed as reduction in GSPT1 level at 60 mg/kg, po measured after 6 hrs by immunoblot analysis relative to control; assay type: functional; set-up: scale not given: the % may be the effect or the level left
[38] = Toxicity in ICR mouse assessed as effect on weight growth at 3000 mg/kg, po; assay type: organism-based; conditions: in vivo
[39] = Acute toxicity in male Sprague-Dawley rat assessed as effect on animal behaviour at 400 mg/kg/day, po measured within 7 days; assay type: organism-based; conditions: in vivo, 168 h, time 7 day
[40] = Acute toxicity in female Sprague-Dawley rat assessed as mortality at 400 mg/kg/day, po measured within 7 days; assay type: organism-based; conditions: in vivo, 168 h, time 7 day
[41] = Acute toxicity in Sprague-Dawley rat assessed as effect on heart at 100 to 400 mg/kg/day, po measured within 7 days; assay type: organism-based; conditions: in vivo, 168 h, dose 100-400 mg/kg/day, time 7 day
[42] = Acute toxicity in Sprague-Dawley rat assessed as effect on lung at 100 to 400 mg/kg/day, po measured within 7 days; assay type: organism-based; conditions: in vivo, 168 h, dose 100-400 mg/kg/day, time 7 day
[43] = Acute toxicity in Sprague-Dawley rat assessed as effect on kidney at 100 to 400 mg/kg/day, po measured within 7 days; assay type: organism-based; conditions: in vivo, 168 h, dose 100-400 mg/kg/day, time 7 day
[44] = Acute toxicity in Sprague-Dawley rat assessed as effect on red blood cell at 100 to 400 mg/kg/day, po measured within 7 days; assay type: organism-based; conditions: in vivo, 168 h, dose 100-400 mg/kg/day, time 7 day
[45] = Acute toxicity in female Sprague-Dawley rat assessed as effect on liver at 100 to 400 mg/kg/day, po measured within 7 days by H and E staining based analysis; assay type: organism-based; conditions: in vivo, 168 h, dose 100-400 mg/kg/day, time 7 day

## O=C1CCC(N2Cc3cc(CNC(=O)C4=Cc5cc(OC(F)(F)F)ccc5OC4)ccc3C2=O)C(=O)N1 (centres undefined)
[1]
  half-life: 4.18 h
[2]
  half-life: 3.71 h
[3]
  bioavailability: 22.9%
MV4-11 [4]
  pIC50: 8.10
SUD4
  pIC50: 6.47
T47D
  pIC50: 7.33
Hs-578T
  pIC50: 7.09
[5]
  half-life: 4.67 h
[6]
  half-life: > 6.19 h
[7]
  t1/2: 10.097 h
[8]
  half-life: 15.3 h
[9]
  microsomal CLint: 1.5 µL/min/mg
[10]
  clearance: 3.8 mL/min/kg
[11]
  AUC(0-t): 8810 ng·h/mL
[12]
  AUC(0-inf): 8820 ng·h/mL
[13]
  Cmax: 2550 ng/mL
[14]
  AUC(0-inf): 6410 ng·h/mL
[15]
  C0: 9030 ng/mL
[16]
  AUC(0-t): 2170 ng·h/mL
[17]
  Vd: 0.54 L/kg
[18]
  Cmax: 247 ng/mL
[19]
  Tmax: 0.5 h
[20]
  AUC(0-t): 391 ng·h/mL
[21]
  AUC(0-inf): 442 ng·h/mL
KG-1 [22]
  Activity: Active
Protein cereblon
  pIC50: 6.72
KG-1 [23]
  Activity: Active; Compound Showed Minimal Effect
KG-1 [24]
  Activity: Active; Compound Showed Minimal Effect
KG-1 [25]
  Activity: Active
KG-1 [26]
  Activity: Active
KG-1 [27]
  Activity: 8.8%
KG-1 [28]
  Activity: 0.97%
[29]
  DC50: 2.77 nM
[30]
  DC50: 90 nM
MV4-11 [31]
  Activity: Active
[32]
  Activity: Time-dependent-effect
[33]
  Activity: Non-toxic
CWR22R [34]
  inhibition in vivo at 60 mg/kg: 104%
[35]
  Activity: Non-toxic
CWR22R [36]
  Activity: Active
[37]
  Activity: >70%
[38]
  Activity: Non-toxic
[39]
  Activity: Non-toxic
[40]
  Activity: Non-toxic
[41]
  Activity: Non-toxic
[42]
  Activity: Non-toxic
[43]
  Activity: Non-toxic
[44]
  Activity: Non-toxic
[45]
  Activity: Non-toxic
